# Experimental data reported in US11851440B2, “Modulators of eukaryotic initiation factor 2B, compositions and methods” (Denali Therapeutics Inc., priority 2017, dated 2023).
# Test system: ISR pathway (ATF4 translation)
# Assay: ATF4 Nano Luciferase reporter integrated stress response (ISR) assay in H4 ATF4-NLuc cells
# Details: Homo sapiens, H4 ATF4-NLuc (clone 17) cells; compound 30 minutes, then 50 um sodium arsenite for 6 hours; luminescence readout
row,IC50 [nM],Structure (SMILES)
1,3.8,O=C(NC12CC(c3nnc([C@H]4C[C@@H](OC(F)(F)F)C4)o3)(C1)C2)c1ccc2cc(Cl)ccc2n1 [Example 169]

# Same assay, conditions: Homo sapiens, read-out: Activity (IC50), H4 ATF4-NLuc (clone 17) cells; compound 30 minutes, then 50 um sodium arsenite for 6 hours; luminescence readout
row,IC50 [nM],Structure (SMILES)
1,< 1000,"CC1C(c2nnc(C34CC(NC(=O)COc5ccc(Cl)c(F)c5)(C3)C4)o2)CN1C(=O)OC(C)(C)C (centres unmarked) [Example 122, tert-butyl 3-[5-[3-[[2-(4-chloro-3-fluoro-phenoxy)acetyl]amino]-1-bicyclo[1.1.1]pentanyl]-1,3,4-oxadiazol-2-yl]-2-methyl-azetidine-1-carboxylate]"
2,< 1000,O=C(COc1ccc(Cl)c(F)c1)NC12CC(n3cnnn3)(C1)C2 [Example 200]
3,1000 to 10000,O=C(COc1ccc(Cl)cc1)NC12CC(c3nnc([C@H]4C[C@@H](O)C4)o3)(C1)C2 [Example 261]
4,1000 to 10000,"CC(C)(C)OC(=O)N1CCOC(c2nnc(C34CC(NC(=O)COc5ccc(Cl)c(F)c5)(C3)C4)o2)C1 (centres unmarked) [Example 128, tert-butyl 2-[5-[3-[[2-(4-chloro-3-fluoro-phenoxy)acetyl]amino]-1-bicyclo[1.1.1]pentanyl]-1,3,4-oxadiazol-2-yl]morpholine-4-carboxylate]"
5,< 1000,O=C(CO[C@H]1C[C@@H](OC(F)(F)F)C1)NC12CC(c3noc(-c4ccc(Cl)cc4)n3)(C1)C2 [Example 203]
6,< 1000,O=C(CO[C@H]1C[C@@H](OC(F)(F)F)C1)NC12CC(n3cnc(-c4cccc(C(F)(F)F)c4)c3)(C1)C2 [Example 134]
7,< 1000,"O=C(COc1ccc(Cl)c(F)c1)NC12CC(c3cn([C@H]4C[C@@H](OC(F)(F)F)C4)nn3)(C1)C2 [Example 65, 2-(4-chloro-3-fluoro-phenoxy)-N-[3-[1-[3-cis-(trifluoromethoxy)cyclobutyl]triazol-4-yl]-1-bicyclo[1.1.1]pentanyl]acetamide]"
8,< 1000,O=C(CO[C@H]1C[C@@H](OC(F)(F)F)C1)NC12CC(c3nc4ccc(Cl)cc4o3)(C1)C2 [Example 233]
9,< 1000,O=C(NC12CC(c3nnc([C@H]4C[C@@H](OC(F)(F)F)C4)o3)(C1)C2)c1nc2ccc(Cl)cc2s1 [Example 192]
10,< 1000,O=C(NC12CC(c3nnc([C@H]4C[C@@H](OC(F)(F)F)C4)o3)(C1)C2)c1ccc2cc(Cl)c(F)cc2n1 [Example 196]
11,< 1000,"O=C(NC12CC(c3nnc([C@H]4C[C@@H](OC(F)(F)F)C4)o3)(C1)C2)C1CCc2cc(F)ccc2O1 (single isomer, unassigned) [Example 159]"
12,< 1000,"O=C(COc1ccc(Cl)c(F)c1)NC12CC(c3nnc(C4(F)CC4)o3)(C1)C2 [Example 10, 2-(4-chloro-3-fluoro-phenoxy)-N-[1-[5-(1-fluorocyclopropyl)-1,3,4-oxadiazol-2-yl]-3-bicyclo[1.1.1]pentanyl]acetamide]"
13,< 1000,O=C(CO[C@H]1C[C@@H](OC(F)(F)F)C1)NC12CC(c3nnc(OCCOC(F)(F)F)o3)(C1)C2 [Example 276]
14,1000 to 10000,"O=C(COC[C@H]1C[C@@H](OC(F)(F)F)C1)NC12CC(c3nnc([C@H]4C[C@@H](OC(F)(F)F)C4)o3)(C1)C2 [Example 117, 2-[[3-cis-(trifluoromethoxy)cyclobutyl]methoxy]-N-[3-[5-[3-cis-(trifluoromethoxy)cyclobutyl]-1,3,4-oxadiazol-2-yl]-1-bicyclo[1.1.1]pentanyl]acetamide]"
15,< 1000,"O=C(COc1ccc(Cl)c(F)c1)NC12CC(c3nnc(C4CCN(CC(F)(F)F)C4)o3)(C1)C2 (centres unmarked) [Example 16, 2-(4-chloro-3-fluoro-phenoxy)-N-[1-[5-[1-(2,2,2-trifluoroethyl)pyrrolidin-3-yl]-1,3,4-oxadiazol-2-yl]-3-bicyclo[1.1.1]pentanyl]acetamide]"
16,> 10000,"CC(C)(c1nnc(C23CC(NC(=O)COc4ccc(Cl)c(F)c4)(C2)C3)o1)C(F)F [Example 131, 2-(4-chloro-3-fluoro-phenoxy)-N-[3-[5-(2,2-difluoro-1,1-dimethyl-ethyl)-1,3,4-oxadiazol-2-yl]-1-bicyclo[1.1.1]pentanyl]acetamide]"
17,< 1000,N#Cc1cc(C(F)(F)F)ccc1-c1cn(C23CC(NC(=O)CO[C@H]4C[C@@H](OC(F)(F)F)C4)(C2)C3)cn1 [Example 255]
18,< 1000,"O=C(COc1ccc(Cl)c(F)c1)NC12CC(c3nnc(C4CC4)o3)(C1)C2 [Example 17, 2-(4-chloro-3-fluoro-phenoxy)-N-[3-(5-cyclopropyl-1,3,4-oxadiazol-2-yl)-1-bicyclo[1.1.1]pentanyl]acetamide]"
19,< 1000,O=C(CO[C@H]1C[C@@H](OC(F)(F)F)C1)NC12CC(n3cnc(-c4ccc(C(F)(F)F)cc4)c3)(C1)C2 [Example 150]

row,IC50 [nM],Structure (SMILES)
1,< 1000,O=C(NC12CC(c3nnc([C@H]4C[C@@H](OC(F)(F)F)C4)o3)(C1)C2)c1ncc2ccccc2n1 [Example 191]
2,< 1000,O=C(COc1ccc(Cl)c(F)c1)NC12CC(N3CC(COC(F)(F)F)CC3=O)(C1)C2 (centres unmarked) [Example 221]
3,< 1000,CC(COCC(=O)NC12CC(n3cnc(-c4ccc(Cl)c(F)c4)c3)(C1)C2)OC(F)(F)F (centres unmarked) [Example 274]
4,< 1000,"O=C(COc1ccc(Cl)c(F)c1)NC12CC(c3cc(C4CCC4)on3)(C1)C2 [Example 24, 2-(4-chloro-3-fluorophenoxy)-N-(3-(5-cyclobutylisoxazol-3-yl)bicyclo[1.1.1]pentan-1-yl)acetamide]"
5,< 1000,O=C(COc1ccc(Cl)c(F)c1)NC12CC(N3CCC(COC(F)(F)F)C3=O)(C1)C2 (centres unmarked) [Example 222]
6,< 1000,O=C(COc1ccc(Cl)c(F)c1)NC12CC(c3nnc(CO[C@H]4C[C@@H](OC(F)(F)F)C4)o3)(C1)C2 [Example 53]
7,< 1000,"Cc1nnc(C23CC(NC(=O)COc4ccc(Cl)c(F)c4)(C2)C3)o1 [Example 40, 2-(4-chloro-3-fluoro-phenoxy)-N-[1-(5-methyl-1,3,4-oxadiazol-2-yl)-3-bicyclo[1.1.1]pentanyl]acetamide]"
8,1000 to 10000,"O=C(NC12CC(c3nnc([C@H]4C[C@@H](OC(F)(F)F)C4)o3)(C1)C2)c1cc2cccn2cn1 [Example 101, N-[3-[5-[3-cis-(trifluoromethoxy)cyclobutyl]-1,3,4-oxadiazol-2-yl]-1-bicyclo[1.1.1]pentanyl]pyrrolo[1,2-c]pyrimidine-3-carboxamide]"
9,< 1000,O=C(CC(O)c1ccc(Cl)cc1)NC12CC(c3nnc([C@H]4C[C@@H](OC(F)(F)F)C4)o3)(C1)C2 (some centres unmarked) [Example 257]
10,< 1000,"O=C(NC12CC(c3nnc([C@H]4C[C@@H](OC(F)(F)F)C4)o3)(C1)C2)OCc1ccc(Cl)cc1 [Example 110, (4-chlorophenyl)methyl-N-[3-[5-[3-cis-(trifluoromethoxy)cyclobutyl]-1,3,4-oxadiazol-2-yl]-1-bicyclo[1.1.1]pentanyl]carbamate]"
11,< 1000,"O=C(COc1ccc(F)cc1)NC12CC(c3nnc([C@H]4C[C@H](OC(F)(F)F)C4)o3)(C1)C2 [Example 72, 2-(4-fluorophenoxy)-N-[3-[5-[3-trans-(trifluoromethoxy)cyclobutyl]-1,3,4-oxadiazol-2-yl]-1-bicyclo[1.1.1]pentanyl]acetamide]"
12,< 1000,O=C(NC12CC(n3cnc(-c4ccc(F)c(F)c4)c3)(C1)C2)[C@H]1C[C@@H](OCCOC(F)(F)F)C1 [Example 229]
13,< 1000,O=C(NC12CC(n3cnc(-c4ccc(Cl)c(F)c4)c3)(C1)C2)[C@H]1C[C@@H](OC(F)(F)F)C1 [Example 153]
14,< 1000,O=C(NC12CC(c3nnc([C@H]4C[C@@H](OC(F)(F)F)C4)o3)(C1)C2)c1ccn(CCOC(F)(F)F)n1 [Example 225]
15,< 1000,O=C(NC12CC(c3nnc([C@H]4C[C@@H](OC(F)(F)F)C4)o3)(C1)C2)c1cn(CCOC(F)(F)F)cn1 [Example 277]
16,< 1000,O=C(NC12CC(c3nnc([C@H]4C[C@@H](OC(F)(F)F)C4)o3)(C1)C2)c1ccc2cc(Cl)ccc2n1 [Example 169]
17,< 1000,"O=C(COc1ccc(Cl)cc1)NC12CC(c3nnc([C@H]4C[C@@H](COC(F)(F)F)C4)o3)(C1)C2 [Example 86, 2-(4-chlorophenoxy)-N-[3-[5-[3-cis-(trifluoromethoxymethyl)cyclobutyl]-1,3,4-oxadiazol-2-yl]-1-bicyclo[1.1.1]pentanyl]acetamide]"
18,< 1000,O=C(COc1cccc(Cl)c1)NC12CC(c3nnc([C@H]4C[C@@H](OC(F)(F)F)C4)o3)(C1)C2 [Example 156]
19,< 1000,O=C(CO[C@H]1C[C@@H](OC(F)(F)F)C1)NC12CC(n3cnc(-c4cnc(C(F)(F)F)nc4)c3)(C1)C2 [Example 231]

row,Structure (SMILES),IC50 [nM]
1,"O=C(COC1CCC1)NC12CC(c3nnc(-c4ccc(Cl)c(F)c4)o3)(C1)C2 [Example 42, N-[1-[5-(4-chloro-3-fluoro-phenyl)-1,3,4-oxadiazol-2-yl]-3-bicyclo[1.1.1]pentanyl]-2-(cyclobutoxy)acetamide]",1000 to 10000
2,"O=C(CO[C@H]1C[C@@H](OC(F)(F)F)C1)NC12CC(c3cn(-c4ccc(Cl)c(F)c4)nn3)(C1)C2 [Example 77, N-[3-[1-(4-chloro-3-fluoro-phenyl)triazol-4-yl]-1-bicyclo[1.1.1]pentanyl]-2-[3-cis-(trifluoromethoxy)cyclobutoxy]acetamide]",< 1000

# Same assay, conditions: read-out: Activity (IC50); H4 ATF4-NLuc (clone 17) cells; compound 30 minutes, then 50 um sodium arsenite for 6 hours; luminescence readout
row,IC50 [nM],Structure (SMILES)
1,< 1000,"O=C(NC12CC(c3nnc([C@H]4C[C@@H](OC(F)(F)F)C4)o3)(C1)C2)C1CCc2cc(F)ccc2O1 (single isomer, unassigned) [Example 160]"
2,< 1000,"O=C(NC12CC(c3nnc([C@H]4C[C@@H](OC(F)(F)F)C4)o3)(C1)C2)C1CCc2cc(Cl)ccc2O1 (single isomer, unassigned) [Example 158, 6-chloro-N-(3-(5-(3-cis-(trifluoromethoxy)cyclobutyl)-1,3,4-oxadiazol-2-yl)bicyclo[1.1.1]pentan-1-yl)chroman-2-carboxamide]"

row,Structure (SMILES),IC50 [nM]
1,"O=C(COC1CC(OC(F)(F)F)C1)NC12CC(c3nnc(C4C[C@H]4COC(F)(F)F)o3)(C1)C2 (single isomer, unassigned) [Example 91, 2-[3-cis-(trifluoromethoxy)cyclobutoxy]-N-[3-[5-[2-trans-(trifluoromethoxymethyl)cyclopropyl]-1,3,4-oxadiazol-2-yl]-1-bicyclo[1.1.1]pentanyl]acetamide]",< 1000
